# Conditions: not given
Compound,boiling point,log10 biodegradation half-life (days),log10 vapour pressure (mmHg),melting point,ready biodegradability,log10 Koa,log10 Koc (L/kg),log10 Henry constant (atm·m³/mol)
CC(C)OC(=O)C(C)Cl (stereo not given),152 °C,,,,,,,
C=COc1ccccc1,156 °C,,,,,,,
CCCCCCCCCCCCCCCCCCCCC,356 °C,1.4,-4.06,40.5 °C,readily biodegradable,,,
Cc1cccc(S)c1,195 °C,,-0.257,-20 °C,,,,
O=[N+]([O-])c1ccc2[nH]cnc2c1,,,,208 °C,not readily biodegradable,,,
CC(=O)OC[C@H]([C@H](OC(C)=O)c1ccccc1)[N+](=O)[O-],,,,70 °C,,,,
C=CCOC(=O)C(=O)OCC=C,217 °C,,,,,,,
O=C1CCO1,162 °C,,,-33.4 °C,readily biodegradable,,,
Clc1cc2c(cc1Cl)Oc1cc(Cl)c(Cl)cc1O2,,,-8.82,305 °C,not readily biodegradable,10.1,6.5,
CC(C)CCOC(=O)CC(C)C,190 °C,,-0.0526,,,,,
Cc1ccc(CCO)cc1,244 °C,,,,,,,
O=C1CCSc2ccccc21,,,,29 °C,,,,
C[Si](C)(C)O[Si](C)(C)O[Si](C)(C)O[Si](C)(C)O[Si](C)(C)O[Si](C)(C)C,246 °C,,-1.53,-59 °C,,,,
CCCCCCCC(=O)Cl,196 °C,,,-63 °C,,,,
CCC1(c2ccccc2)NC(=O)N(C)C1=O (stereo not given),,,,136 °C,,,,
Cc1ccc2cccc(O)c2n1,267 °C,,,73.8 °C,,,,
CCCC/C=C/CO,178 °C,,,,,,,
O=Cc1ccco1,162 °C,,0.344,-38.1 °C,readily biodegradable,,,
C=CC(O)C=C,116 °C,,,,,,,
C=CC1CN2CCC1CC2C(=O)c1ccnc2ccc(OC)cc12 (stereo not given),,,,108 °C,,,,
C=COC(=O)CCC,,,,117 °C,,,,
CO[C@H]1[C@@H](O)[C@@H](C)O[C@H](O[C@H]2[C@H](Oc3cccc4c(O)c5c(=O)oc6ccc(C)c7c(=O)oc(c34)c5c67)O[C@H](C)[C@H](O)[C@@H]2O)[C@@H]1O,,,,185 °C,,,,
CCNS(=O)(=O)C(F)(F)C(F)(F)C(F)(F)C(F)(F)C(F)(F)C(F)(F)C(F)(F)C(F)(F)F,196 °C,,-6.37,96 °C,,,,
CCCCCC(=O)OC(=O)CCCCC,,,,-41 °C,,,,
CCC(=O)C(C)C,114 °C,,1.26,,,,,
CCC(C)C(=O)C(C)CC (stereo not given),162 °C,,,,,,,

Compound,boiling point,log10 biodegradation half-life (days),log10 vapour pressure (mmHg),melting point,ready biodegradability,log10 Koa,log10 Koc (L/kg),log10 Henry constant (atm·m³/mol)
CCNc1nc(Cl)nc(NC(C)(C)C)n1,,,-5.95,178 °C,,,2.32,
CCC(C)C(C)=O (stereo not given),118 °C,,1.06,,,,,
COc1ccc(CC(C)(C)C)cc1,238 °C,,,,,,,
OC(O)C(Br)(Br)Br,,,,53.5 °C,,,,
O=C1CCC(=O)O1,261 °C,,-2.82,119 °C,,,,
Cc1cc(CO)c(O)c(CO)c1,,,,129 °C,,,,
CC(CCl)[N+](=O)[O-] (stereo not given),172 °C,,,,,,,
CC(=O)CC(=O)Nc1ccc(C)cc1,,,,,readily biodegradable,,,
NCCOP(=O)(O)O,,,,242 °C,,,,
Cc1csc(NS(=O)(=O)c2ccc(N)cc2)n1,,,,237 °C,,,,
CCC(CC)C(C)C(C)C (stereo not given),162 °C,,,,,,,
C[C@]12CC[C@H](O)C[C@H]1CC[C@@H]1[C@@H]2[C@H](O)C[C@]2(C)[C@@H](C3=CC(=O)OC3)CC[C@]12O,,,,280 °C,,,,
O=C(O)c1cc(I)ccc1O,,,,190 °C,,,,
Nc1ccc(/N=N/c2ccccc2)cc1,366 °C,,-5.85,127 °C,not readily biodegradable,,2.79,
O=S1(=O)OCCO1,,,,99 °C,,,,
CCCC(Cl)Cl,114 °C,,1.36,,,,,
CNC(=O)Oc1ccc(SC)c(C)c1,,,,118 °C,,,,
COc1ccc(Nc2ccc(OC)cc2)cc1,,,,,not readily biodegradable,,,
COCC(C)N(C(=O)CCl)c1c(C)csc1C (stereo not given),,,-3.56,,,,,-7.09
CCCCC(=O)CCC,163 °C,,,,,,,
Cc1ccc(-c2ccc(C)cc2C)c(C)c1,287 °C,,,41 °C,,,,
CC12CCC(C(Cl)C1=O)C2(C)C (stereo not given),,,,106 °C,,,,
COc1cc(O)c2c(=O)c(O)c(-c3ccc(O)c(O)c3)oc2c1,,,,295 °C,,,,
S=C1NCCS1,,,,106 °C,,,,
Cc1cc(-c2ccccc2)ccc1N,,,,43 °C,,,,
Cc1ccc(Oc2ccc([N+](=O)[O-])cc2)cc1,,,,69 °C,,,,

Compound,boiling point,log10 biodegradation half-life (days),log10 vapour pressure (mmHg),melting point,ready biodegradability,log10 Koa,log10 Koc (L/kg),log10 Henry constant (atm·m³/mol)
COCCCCl,111 °C,,,,,,,
NC1CCC(CC2CCC(N)CC2)CC1 (stereo not given),320 °C,,,15 °C,,,,
C=C[C@@](C)(O)CC/C=C(/C)CCC=C(C)C,276 °C,,,,,,,
COC(N)=O,177 °C,,,54 °C,,,,
O=S(=O)(O)c1ccccc1,,,,65 °C,readily biodegradable,,,
NC(=O)CCl,225 °C,,,121 °C,,,,
CCCCc1cccc(O)c1,248 °C,,,,,,,
Clc1ccc(Cl)c(-c2ccccc2)c1,,,-2.86,,,,,-3.55
CCC(C)(CC)c1ccccc1,205 °C,,,,,,,
CC[C@H](CC[C@@H](C)[C@H]1CC[C@H]2[C@@H]3CC=C4C[C@@H](O)CC[C@]4(C)[C@H]3CC[C@]12C)C(C)C,,,,144 °C,,,,
c1ccsc1,84 °C,,1.9,-39.4 °C,not readily biodegradable,,,-2.64
O=C(SSC(=O)c1ccccc1)c1ccccc1,,,,134 °C,,,,
COc1ccc2c(c1OC)C(=O)O[C@@H]2[C@H]1c2cc3c(cc2CCN1C)OCO3,,,,132 °C,,,,
Cc1ccc(C=O)cc1,204 °C,,-0.602,-6 °C,readily biodegradable,,,
CC(C)=C(C)C(C)C,116 °C,,1.35,-113 °C,,,,
CCC(Br)C(=O)Cl (stereo not given),151 °C,,,,,,,
Cc1cc(Cl)nn1C,211 °C,,,47.5 °C,,,,
CC=C(C)CCl,110 °C,,,,,,,
CCCCCCCCCCCCCN,276 °C,,,27.4 °C,,,,
O=C[C@H](O)[C@@H](O)[C@@H](O)[C@H](O)C(=O)O,,,,166 °C,,,,
Clc1cc2oc3ccc(Cl)c(Cl)c3c2c(Cl)c1Cl,,,,,,10.5,,
O=C(O)c1ccc(F)c(F)c1F,,,,141 °C,,,,
CCNCCN,129 °C,,,,,,,
CC(CCO)CC(C)(C)C (stereo not given),194 °C,,-0.523,,not readily biodegradable,,,
CC(N)c1ccccc1 (stereo not given),185 °C,,,,,,,
CC1(C)CC[C@]2(C)CC[C@]3(C)C(=CC[C@@H]4[C@@]5(C)CC[C@H](O)C(C)(C)[C@@H]5CC[C@]43C)[C@@H]2C1,,,,197 °C,,,,

Compound,boiling point,log10 biodegradation half-life (days),log10 vapour pressure (mmHg),melting point,ready biodegradability,log10 Koa,log10 Koc (L/kg),log10 Henry constant (atm·m³/mol)
BrC1CCCC1,138 °C,,,,,,,
CCc1ccc2c(c1)C(=O)c1ccccc1C2=O,,,,110 °C,not readily biodegradable,,,
Cc1cccc(C)n1,144 °C,,0.752,-6.1 °C,,,,-4.98
Oc1ccc2ccccc2c1Br,,,,84 °C,,,,
O=C(CCCN1CCC(O)(c2ccc(Br)cc2)CC1)c1ccc(F)cc1,,,,155 °C,,,,
C[C@@H](Br)C(=O)Cl,132 °C,,,,,,,
CCCCCCCCCCC1CCCCC1,299 °C,,-2.99,-1.7 °C,,,,
O=S(=O)(O)NC1CCCCC1,,,,170 °C,,,,
CCC(Br)CC,119 °C,,,-126 °C,,,,
CCCCCCCCCCCCCCCCOC(=O)CCCCCCCCCCCCCCC,,,,54 °C,,,,
Nc1ccc(-c2ccccc2N)cc1,363 °C,,,54.5 °C,,,,
Cc1c(O)cccc1Cl,225 °C,,,86 °C,,,,
CCC(O)CO[N+](=O)[O-] (stereo not given),,,,,,,,-6.76
CCS(=O)(=O)CCn1c([N+](=O)[O-])cnc1C,,,,128 °C,,,,
COc1nc2c(c(=O)n(C)c(=O)n2C)n1C,,,,176 °C,,,,
O=C1c2ccccc2Cc2ccccc21,,,,155 °C,,,,
S=C1CCCCCN1,,,,108 °C,,,,
CCC(=O)O[C@]1(C(=O)CCl)[C@@H](C)C[C@H]2[C@@H]3CCC4=CC(=O)C=C[C@]4(C)[C@@]3(F)[C@@H](O)C[C@@]21C,,,,196 °C,,,,
O=C1c2ccccc2C(=O)c2c1ccc(O)c2O,430 °C,,-9.06,290 °C,,,,
CNC(=O)N(C)C,232 °C,,,75.5 °C,,,,
Cc1cc(Cl)ccc1OCCCC(=O)O,,,-6.36,100 °C,,,2.73,
CCCCCCCCCCCCNC(=O)C[N+](C)(C)Cc1ccccc1.[Cl-],,,,148 °C,,,,
Nc1ccnc2ccccc12,,,,155 °C,,,,

# Same assay, conditions: fish
Compound,log10 BCF,log10 biotransformation half-life (days)
O=[N+]([O-])c1ccc2[nH]cnc2c1,0.4,-1.15
Clc1cc2c(cc1Cl)Oc1cc(Cl)c(Cl)cc1O2,4.99,1.78
Clc1ccc(Cl)c(-c2ccccc2)c1,3.98,2.38
c1ccsc1,0.95,-0.82
CC(N)c1ccccc1 (stereo not given),0.82,
CCc1ccc2c(c1)C(=O)c1ccccc1C2=O,0.98,
C=C(C)CCCCCCCCCCC,,0.73
